Target: T1, Solute carrier organic anion transporter family member 1A4 (Rattus norvegicus, UniProt O35913)
T1 sequence (O35913 whole entry): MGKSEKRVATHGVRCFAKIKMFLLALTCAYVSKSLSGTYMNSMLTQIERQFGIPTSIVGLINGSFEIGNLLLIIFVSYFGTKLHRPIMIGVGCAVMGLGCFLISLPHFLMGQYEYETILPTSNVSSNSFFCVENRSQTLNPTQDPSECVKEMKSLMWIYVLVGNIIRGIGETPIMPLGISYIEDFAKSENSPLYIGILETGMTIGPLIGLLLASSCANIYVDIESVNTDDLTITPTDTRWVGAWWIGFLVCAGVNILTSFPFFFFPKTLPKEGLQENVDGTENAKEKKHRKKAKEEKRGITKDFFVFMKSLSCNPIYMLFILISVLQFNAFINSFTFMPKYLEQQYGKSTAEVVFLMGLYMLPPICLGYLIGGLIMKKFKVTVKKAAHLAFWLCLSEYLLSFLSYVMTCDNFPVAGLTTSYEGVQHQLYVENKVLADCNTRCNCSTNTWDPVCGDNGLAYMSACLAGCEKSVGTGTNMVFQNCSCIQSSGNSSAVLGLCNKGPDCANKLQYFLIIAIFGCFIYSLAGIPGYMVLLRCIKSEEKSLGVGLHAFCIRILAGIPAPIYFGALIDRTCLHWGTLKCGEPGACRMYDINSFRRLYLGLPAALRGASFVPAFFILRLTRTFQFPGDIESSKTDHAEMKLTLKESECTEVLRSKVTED
Assay: TP_TRANSPORTER: uptake in Xenopus laevis oocytes
Format: functional, cell-based
Conditions: oocyte

**Q.** For `O=C(O)CCCC[C@@H]1SC[C@@H]2NC(=O)N[C@@H]21` [BIOTIN], which Activity is on record?
**A.** Its Activity is “substrate [+]”.

Reference: ChEMBL document CHEMBL2073989, “Immunohistochemical distribution and functional characterization of an organic anion transporting polypeptide 2 (oatp2)” (FEBS Lett, 1999)
